Reference: patent US20260137701A1, “CHOLESTENOIC ACID (CA) AND A SULFATED DERIVATIVE THEREOF, 3[BETA]-SULFATE-5-CHOLESTENOIC ACID (CA3S), AS ENDOGENOUS EPIGENETIC REGULATORS” (priority 2022, published 2026)

Experiments:
HepG-2 cells [1] = assay: Untargeted lipidomics analysis; type: cell-based, human
Protocol: HepG-2 cells were cultured in DMEM medium with HG for 72 hours followed by treating with 20 μM CA for 24, 48, and 72 hours. The cells were harvested with 500 μl 1× PBS, and sent to Creative Proteomics Co., Ltd (New York, USA) for untargeted lipidomics analysis. Samples were thawed and 1.5 mL chloroform:methanol (2:1, v/v) added to sample, vortexed for 1 min, and followed by sonication for 30 min, 4° C. Then centrifuge 10 min at 12,000 rpm, 4° C., transfer the lower phase to a new tube, dry under the nitrogen. The dried extract with 200 μl of isopropyl alcohol:methanol (1:1, v/v); add 5 μl LPC (12:0) for internal standard. Finally, centrifuge 10 min at 12,000 rpm, 4° C.; transfer the supernatant for LC-MS analysis. Separation is performed by UltiMate™ 3000 LC combined with Q Exactive™ MS (Thermo) and screened with ESI-MS. The LC system is comprised of ACQUITY UPLC® BEH C18 (100×2.1 mm×1.7 μm) with UltiMate™ 3000 LC. The mobile phase is composed of solvent A (60% ACN+40% H2O+10 mM HCOONH4) and solvent B (10% ACN+90% isopropyl alcohol+10 mM HCOONH4) with a gradient elution (0-10.5 min, 30%-100% B; 10.5 min-12.5 min, 100% B; 12.5-12.51 min, 100%-30% B; 12.51-16.0 min, 30% B). The flow rate of the mobile phase is 0.3-1 mL·min. The column temperature is maintained at 40° C., and the sample manager temperature is set at 4° C. Mass spectrometry parameters in ESI+ and ESI− mode are listed as follows: ESI+: Heater Temp 300° C.; Sheath Gas Flow rate, 45 arb; Aux Gas Flow Rate, 15 arb; Sweep Gas Flow Rate, larb; spray voltage, 3.0 KV; Capillary Temp, 350° C.; S-Lens RF Level, 30%. ESI−: Heater Temp 300° C., Sheath Gas Flow rate, 45 arb; Aux Gas Flow Rate, 15 arb; Sweep Gas Flow Rate, larb; spray voltage, 3.2 KV; Capillary Temp, 350° C.; S-Lens RF Level, 60%.

recombinant DNMT3b = recombinant DNMT3b (Homo sapiens, UniProt Q9UBC3); assay: DNMT3b enzyme kinetic (activity) assay, 3H-SAM filter; type: biochemical; conditions: read-out: IC50, inhibits DNMT3b activity
Protocol: The enzyme kinetic studies were carried out by Reaction Biology Company. For the DNMT1 activity assay, the substrate solution, 0.001 mg/ml Poly(dI-dC): Poly(dI-dC) in 50 mM Tris-HCl, pH 7.5, 50 mM NaCl, 5 mM EDTA, 5 mM DTT, 1 mM PMSF, 5% glycerol, 0.01% Brij™35, 1% DMSO was used. For the DNMT3a/3b activity assay, 0.0075 mg/ml Lambda DNA in 50 mM Tris-HCl, pH 7.5, 50 mM NaCl, 5 mM EDTA, 5 mM DTT, 1 mM PMSF, 5% glycerol, 1% DMSO, was used. The indicated DNMT1, DNMT3a and DNMT3b were added to the appropriate substrate solution and gently mixed. Amounts of CA ranging from 5.08E-09 to 0.0001 M in DMSO were added to the reaction mixture by using Acoustic Technology (Echo® 550, LabCyte Inc. Sunnyvale, CA). The mixtures were first incubated for 15 min, then ^3H-SAM was added to the reaction mixture to initiate the reaction, and the mixture was incubated for 60 min at 30° C. Following incubation, the reaction mixture was finally transferred to filter-paper for detection of radioactivity counts.

HepG-2 cells [2] = assay: HepG-2 cell death; type: cell-based, human

`CC(CCC[C@@H](C)[C@H]1CC[C@H]2[C@@H]3CC=C4C[C@@H](O)CC[C@]4(C)[C@H]3CC[C@]12C)C(=O)O` (stereo partly drawn) [CA, 3β-hydroxy-5-cholestenoic acid] was tested, and the “average decreased percentage of ChE (cholesterol ester)” value (HepG-2 cells [1]; 20 μM CA, 48 hours) was 47%, the “average decreased percentage of DG (Diglycerides)” value (HepG-2 cells [1]; 20 μM CA, 48 hours) was 76% and the “average decreased percentage of FA” value (HepG-2 cells [1]; 20 μM CA, 48 hours) was 65%. For the same molecule, the “average decreased percentage of MG (Monoglycerides)” value (HepG-2 cells [1]; 20 μM CA, 48 hours) was 53%, the “average decreased percentage of TG (Triglycerides)” value (HepG-2 cells [1]; 20 μM CA, 48 hours) was 70% and the “lipid levels (GP, SP, GL, ST, FA)” value (HepG-2 cells [1]; HG medium 72 hours, then 20 μM CA) was “significantly decreased”. The IC50 (recombinant DNMT3b) was 4.89 µM and the HepG-2 cell death (HepG-2 cells [2]) was “induces HepG-2 cell death”.
